# Data reported in patent publication US10392391B2 (Vertex Pharmaceuticals Incorporated, priority 2012, dated 2019).
# Biological target: ATR kinase (full-length ATR) (Homo sapiens (Human), UniProt Q13535)
# Assay: ATR inhibition assay (radioactive-phosphate incorporation)
# Format: biochemical
# Settings: not given
# Outline: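 Radiometric 33P incorporation by 5 nM full-length ATR into 800 μM target peptide with 10 μM [γ-33P]ATP, in 50 mM Tris/HCl pH 7.5, 10 mM MgCl2, 1 mM DTT, 7% DMSO, 25° C. Compound pre-incubated 10 minutes; reaction stopped after 24 hours, captured on phosphocellulose. Ki(app) from non-linear regression of initial rates.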
# Sequence of ATR kinase (full-length ATR) (Q13535 whole entry): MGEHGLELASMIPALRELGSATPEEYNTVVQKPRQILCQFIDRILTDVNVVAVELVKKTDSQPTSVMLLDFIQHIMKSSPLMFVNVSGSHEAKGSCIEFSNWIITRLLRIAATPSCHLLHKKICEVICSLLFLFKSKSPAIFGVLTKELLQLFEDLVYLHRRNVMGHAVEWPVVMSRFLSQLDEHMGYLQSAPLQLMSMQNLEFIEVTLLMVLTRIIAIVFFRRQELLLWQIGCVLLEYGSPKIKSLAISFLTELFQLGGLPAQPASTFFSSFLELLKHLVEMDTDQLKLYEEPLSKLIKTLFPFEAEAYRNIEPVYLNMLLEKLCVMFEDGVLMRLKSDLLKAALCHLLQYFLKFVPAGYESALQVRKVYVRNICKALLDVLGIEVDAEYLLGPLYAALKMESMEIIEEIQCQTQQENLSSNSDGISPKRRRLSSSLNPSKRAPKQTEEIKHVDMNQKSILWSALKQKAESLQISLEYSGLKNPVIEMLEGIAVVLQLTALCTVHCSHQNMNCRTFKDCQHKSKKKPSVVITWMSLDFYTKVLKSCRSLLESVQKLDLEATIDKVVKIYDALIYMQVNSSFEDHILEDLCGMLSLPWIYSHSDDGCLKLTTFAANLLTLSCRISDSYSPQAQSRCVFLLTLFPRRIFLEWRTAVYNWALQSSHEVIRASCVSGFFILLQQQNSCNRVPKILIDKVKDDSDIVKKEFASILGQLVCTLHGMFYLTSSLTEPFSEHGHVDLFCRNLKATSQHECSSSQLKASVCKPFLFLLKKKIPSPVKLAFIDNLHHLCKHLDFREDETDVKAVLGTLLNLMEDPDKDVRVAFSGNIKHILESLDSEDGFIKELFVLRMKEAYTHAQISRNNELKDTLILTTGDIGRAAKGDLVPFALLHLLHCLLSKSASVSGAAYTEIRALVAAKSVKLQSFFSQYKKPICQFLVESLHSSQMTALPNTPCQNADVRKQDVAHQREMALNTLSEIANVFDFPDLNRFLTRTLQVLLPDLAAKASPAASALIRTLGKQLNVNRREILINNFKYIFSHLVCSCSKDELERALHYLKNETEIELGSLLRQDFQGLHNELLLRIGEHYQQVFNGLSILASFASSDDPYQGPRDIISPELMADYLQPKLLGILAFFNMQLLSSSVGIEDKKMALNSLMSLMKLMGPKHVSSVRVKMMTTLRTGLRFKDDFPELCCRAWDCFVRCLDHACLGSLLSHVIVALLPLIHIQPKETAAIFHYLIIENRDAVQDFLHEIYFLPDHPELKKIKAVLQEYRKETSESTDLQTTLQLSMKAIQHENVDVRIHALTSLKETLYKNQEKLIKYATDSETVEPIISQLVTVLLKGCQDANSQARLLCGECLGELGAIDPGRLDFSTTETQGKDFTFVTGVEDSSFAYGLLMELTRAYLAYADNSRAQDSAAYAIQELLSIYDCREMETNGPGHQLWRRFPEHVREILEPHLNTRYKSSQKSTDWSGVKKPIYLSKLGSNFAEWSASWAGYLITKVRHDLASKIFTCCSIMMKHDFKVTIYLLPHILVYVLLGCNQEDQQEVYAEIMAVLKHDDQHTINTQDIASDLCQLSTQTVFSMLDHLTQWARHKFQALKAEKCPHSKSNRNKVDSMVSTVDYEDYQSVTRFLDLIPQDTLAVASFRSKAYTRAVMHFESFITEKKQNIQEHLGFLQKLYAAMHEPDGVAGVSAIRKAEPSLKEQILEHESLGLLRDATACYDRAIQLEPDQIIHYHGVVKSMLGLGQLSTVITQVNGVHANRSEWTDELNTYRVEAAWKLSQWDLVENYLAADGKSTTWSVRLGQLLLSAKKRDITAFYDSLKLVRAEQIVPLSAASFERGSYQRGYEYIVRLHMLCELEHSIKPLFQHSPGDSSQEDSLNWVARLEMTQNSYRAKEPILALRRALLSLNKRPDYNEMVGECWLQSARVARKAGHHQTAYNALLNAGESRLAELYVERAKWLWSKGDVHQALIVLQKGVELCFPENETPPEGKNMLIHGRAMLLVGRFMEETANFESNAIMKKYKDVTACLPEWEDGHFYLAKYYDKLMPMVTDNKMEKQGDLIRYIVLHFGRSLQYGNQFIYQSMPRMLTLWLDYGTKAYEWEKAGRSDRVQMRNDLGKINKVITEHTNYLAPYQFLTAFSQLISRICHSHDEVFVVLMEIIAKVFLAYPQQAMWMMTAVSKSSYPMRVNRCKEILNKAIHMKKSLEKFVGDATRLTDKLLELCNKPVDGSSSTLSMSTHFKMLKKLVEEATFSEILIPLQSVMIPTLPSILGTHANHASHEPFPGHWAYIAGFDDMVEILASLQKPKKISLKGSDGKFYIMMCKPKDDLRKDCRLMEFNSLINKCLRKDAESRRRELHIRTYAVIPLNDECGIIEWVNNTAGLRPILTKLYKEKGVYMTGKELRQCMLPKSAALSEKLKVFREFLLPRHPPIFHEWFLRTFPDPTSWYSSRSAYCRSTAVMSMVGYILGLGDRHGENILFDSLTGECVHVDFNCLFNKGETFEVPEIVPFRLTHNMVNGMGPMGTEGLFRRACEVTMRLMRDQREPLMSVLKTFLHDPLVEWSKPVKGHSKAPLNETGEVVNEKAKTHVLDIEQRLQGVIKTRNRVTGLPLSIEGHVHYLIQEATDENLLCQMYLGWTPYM
row,Ki [nM],Structure (SMILES)
1,1000 to 5000,"CN1CCN(C(=O)C2CCN(c3c(F)cncc3NC(=O)c3c(N)nn4cc(F)cnc34)C2)CC1 (centres unmarked) [I-N-191, 2-amino-6-fluoro-N-(5-fluoro-4-(3-(4-methylpiperazine-1-carbonyl)pyrrolidin-1-yl)pyridin-3-yl)pyrazolo[1,5-a]pyrimidine-3-carboxamide]"

# Same assay, conditions: Ki(app), 5 nM full-length ATR, 10 μM ATP, 25° C.
row,Structure (SMILES),Ki [nM]
1,"CN1CCC(S(=O)(=O)N2CCN(c3c(F)cncc3NC(=O)c3c(N)nn4cc(F)cnc34)CC2)CC1 [I-N-175, 2-amino-6-fluoro-N-(5-fluoro-4-(4-((1-methylpiperidin-4-yl)sulfonyl)piperazin-1-yl)pyridin-3-yl)pyrazolo[1,5-a]pyrimidine-3-carboxamide]",10 to 1000
2,"Nc1nn2cc(F)cnc2c1C(=O)Nc1cnccc1N1CCN(S(=O)(=O)C2CC2)CC1 [I-N-176, 2-amino-N-(4-(4-(cyclopropylsulfonyl)piperazin-1-yl)pyridin-3-yl)-6-fluoropyrazolo[1,5-a]pyrimidine-3-carboxamide]",10 to 1000
3,"Nc1nn2cc(F)cnc2c1C(=O)Nc1cnccc1N1CCN(S(=O)(=O)C2CCOCC2)CC1 [I-N-177, 2-amino-6-fluoro-N-(4-(4-((tetrahydro-2H-pyran-4-yl)sulfonyl)piperazin-1-yl)pyridin-3-yl)pyrazolo[1,5-a]pyrimidine-3-carboxamide]",10 to 1000
4,"CS(=O)(=O)N1CCN(c2ccncc2NC(=O)c2c(N)nn3cc(F)cnc23)CC1 [I-N-178, 2-amino-6-fluoro-N-(4-(4-(methylsulfonyl)piperazin-1-yl)pyridin-3-yl)pyrazolo[1,5-a]pyrimidine-3-carboxamide]",10 to 1000
5,"Nc1nn2cc(F)cnc2c1C(=O)Nc1cnccc1N1CCN(S(=O)(=O)C2CCOC2)CC1 (centres unmarked) [I-N-179, 2-amino-6-fluoro-N-(4-(4-((tetrahydrofuran-3-yl)sulfonyl)piperazin-1-yl)pyridin-3-yl)pyrazolo[1,5-a]pyrimidine-3-carboxamide]",10 to 1000
6,"N#CC1(c2cnc3c(C(=O)Nc4cncc(F)c4N4CCN(C5COC5)CC4)c(N)nn3c2)CC1 [I-N-180, 2-amino-6-(1-cyanocyclopropyl)-N-(5-fluoro-4-(4-(oxetan-3-yl)piperazin-1-yl)pyridin-3-yl)pyrazolo[1,5-a]pyrimidine-3-carboxamide]",10 to 1000
7,"CN1CCC[C@@H]1C(=O)N1CCN(c2c(F)cncc2NC(=O)c2c(N)nn3cc(F)cnc23)CC1 [I-N-181, (R)-2-amino-6-fluoro-N-(5-fluoro-4-(4-(1-methylpyrrolidine-2-carbonyl)piperazin-1-yl)pyridin-3-yl)pyrazolo[1,5-a]pyrimidine-3-carboxamide]",10 to 1000
8,"Nc1nn2cc(F)cnc2c1C(=O)Nc1cncc(F)c1N1CCN2C(=O)CC[C@@H]2C1 [I-N-182, (R)-2-amino-6-fluoro-N-(5-fluoro-4-(6-oxohexahydropyrrolo[1,2-a]pyrazin-2(1H)-yl)pyridin-3-yl)pyrazolo[1,5-a]pyrimidine-3-carboxamide]",10 to 1000
9,"CN1CCOC2(CCN(c3ccncc3NC(=O)c3c(N)nn4cc(F)cnc34)CC2)C1 [I-N-183, 2-amino-6-fluoro-N-(4-(4-methyl-1-oxa-4,9-diazaspiro[5.5]undecan-9-yl)pyridin-3-yl)pyrazolo[1,5-a]pyrimidine-3-carboxamide]",10 to 1000
10,"Nc1nn2cc(F)cnc2c1C(=O)Nc1cncc(F)c1N1CCC(c2nccs2)CC1 [I-N-184, 2-amino-6-fluoro-N-(5-fluoro-4-(4-(thiazol-2-yl)piperidin-1-yl)pyridin-3-yl)pyrazolo[1,5-a]pyrimidine-3-carboxamide]",10 to 1000
11,"CCN1CCCC1C(=O)N1CCN(c2c(F)cncc2NC(=O)c2c(N)nn3cc(F)cnc23)CC1 (centres unmarked) [I-N-185, 2-amino-N-(4-(4-(1-ethylpyrrolidine-2-carbonyl)piperazin-1-yl)-5-fluoropyridin-3-yl)-6-fluoropyrazolo[1,5-a]pyrimidine-3-carboxamide]",10 to 1000
12,"Nc1nn2cc(F)cnc2c1C(=O)Nc1cncc(F)c1N1CCN(C(=O)CN2CCCC2)CC1 [I-N-187, 2-amino-6-fluoro-N-(5-fluoro-4-(4-(2-(pyrrolidin-1-yl)acetyl)piperazin-1-yl)pyridin-3-yl)pyrazolo[1,5-a]pyrimidine-3-carboxamide]",10 to 1000
13,"CN1CCC(S(=O)(=O)N2CCN(c3ccncc3NC(=O)c3c(N)nn4cc(F)cnc34)CC2)CC1 [I-N-188, 2-amino-6-fluoro-N-(4-(4-((1-methylpiperidin-4-yl)sulfonyl)piperazin-1-yl)pyridin-3-yl)pyrazolo[1,5-a]pyrimidine-3-carboxamide]",10 to 1000
14,"Nc1nn2cc(F)cnc2c1C(=O)Nc1cncc(F)c1N1CCC(N2CCOCC2)CC1 [I-N-189, 2-amino-6-fluoro-N-(5-fluoro-4-(4-morpholinopiperidin-1-yl)pyridin-3-yl)pyrazolo[1,5-a]pyrimidine-3-carboxamide]",10 to 1000
15,"CS(=O)(=O)C1CCN(c2ccncc2NC(=O)c2c(N)nn3cc(F)cnc23)CC1 [I-N-190, 2-amino-6-fluoro-N-(4-(4-(methylsulfonyl)piperidin-1-yl)pyridin-3-yl)pyrazolo[1,5-a]pyrimidine-3-carboxamide]",10 to 1000
16,"CN1CCN(CC2CCN(c3c(F)cncc3NC(=O)c3c(N)nn4cc(C5(C#N)CC5)cnc34)CC2)CC1 [I-N-192, 2-amino-6-(1-cyanocyclopropyl)-N-(5-fluoro-4-(4-((4-methylpiperazin-1-yl)methyl)piperidin-1-yl)pyridin-3-yl)pyrazolo[1,5-a]pyrimidine-3-carboxamide]",10 to 1000
17,"CN1CCN(CC2CCN(c3c(F)cncc3NC(=O)c3c(N)nn4cc(F)cnc34)CC2)C(=O)C1 [I-N-193, 2-amino-6-fluoro-N-(5-fluoro-4-(4-((4-methyl-2-oxopiperazin-1-yl)methyl)piperidin-1-yl)pyridin-3-yl)pyrazolo[1,5-a]pyrimidine-3-carboxamide]",10 to 1000
18,CN1CC(C(=O)N2CCN(c3c(F)cncc3NC(=O)c3c(N)nn4cc(F)cnc34)CC2)C1 [I-N-194],10 to 1000

# Other lines, results leading:
row,Ki [nM],Structure (SMILES)
1,10 to 1000,"Nc1nn2cc(F)cnc2c1C(=O)Nc1cnccc1N1CCN(S(=O)(=O)C2COC2)CC1 [I-N-195, 2-amino-6-fluoro-N-(4-(4-(oxetan-3-ylsulfonyl)piperazin-1-yl)pyridin-3-yl)pyrazolo[1,5-a]pyrimidine-3-carboxamide]"
2,10 to 1000,"Nc1nn2cc(F)cnc2c1C(=O)Nc1cnccc1N1CCC(S(=O)(=O)N2CCN3CCC2CC3)CC1 [I-N-196, N-(4-(4-(1,4-diazabicyclo[3.2.2]nonan-4-ylsulfonyl)piperidin-1-yl)pyridin-3-yl)-2-amino-6-fluoropyrazolo[1,5-a]pyrimidine-3-carboxamide]"
3,10 to 1000,"Nc1nn2cc(F)cnc2c1C(=O)Nc1cnccc1N1CCC(CN2CCC(F)(F)C2)CC1 [I-N-197, 2-amino-N-(4-(4-((3,3-difluoropyrrolidin-1-yl)methyl)piperidin-1-yl)pyridin-3-yl)-6-fluoropyrazolo[1,5-a]pyrimidine-3-carboxamide]"
4,10 to 1000,"CN1CCC[C@H]1C(=O)N1CCN(c2ccncc2NC(=O)c2c(N)nn3cc(F)cnc23)CC1 [I-N-198, (S)-2-amino-6-fluoro-N-(4-(4-(1-methylpyrrolidine-2-carbonyl)piperazin-1-yl)pyridin-3-yl)pyrazolo[1,5-a]pyrimidine-3-carboxamide]"
5,10 to 1000,"CN1CCC[C@@H]1C(=O)N1CCN(c2ccncc2NC(=O)c2c(N)nn3cc(F)cnc23)CC1 [I-N-199, (R)-2-amino-6-fluoro-N-(4-(4-(1-methylpyrrolidine-2-carbonyl)piperazin-1-yl)pyridin-3-yl)pyrazolo[1,5-a]pyrimidine-3-carboxamide]"
6,10 to 1000,"Nc1nn2cc(F)cnc2c1C(=O)Nc1cnccc1N1CCC(S(=O)(=O)C2COC2)CC1 [I-N-200, 2-amino-6-fluoro-N-(4-(4-(oxetan-3-ylsulfonyl)piperidin-1-yl)pyridin-3-yl)pyrazolo[1,5-a]pyrimidine-3-carboxamide]"
7,10 to 1000,Nc1nn2cc(F)cnc2c1C(=O)Nc1cncc(F)c1N1CCN(S(=O)(=O)C2COC2)CC1 [I-N-201]
8,10 to 1000,"Nc1nn2cc(F)cnc2c1C(=O)Nc1cncc(F)c1N1CCN(C(=O)C2CC3CCCCN3C2)CC1 (centres unmarked) [I-N-203, 2-amino-6-fluoro-N-(5-fluoro-4-(4-(octahydroindolizine-2-carbonyl)piperazin-1-yl)pyridin-3-yl)pyrazolo[1,5-a]pyrimidine-3-carboxamide]"
9,10 to 1000,"CCN1CCCCC1C(=O)N1CCN(c2c(F)cncc2NC(=O)c2c(N)nn3cc(F)cnc23)CC1 (centres unmarked) [I-N-204, 2-amino-N-(4-(4-(1-ethylpiperidine-2-carbonyl)piperazin-1-yl)-5-fluoropyridin-3-yl)-6-fluoropyrazolo[1,5-a]pyrimidine-3-carboxamide]"
10,10 to 1000,"CC(C)N1CCCC1C(=O)N1CCN(c2c(F)cncc2NC(=O)c2c(N)nn3cc(F)cnc23)CC1 (centres unmarked) [I-N-205, 2-amino-6-fluoro-N-(5-fluoro-4-(4-(1-isopropylpyrrolidine-2-carbonyl)piperazin-1-yl)pyridin-3-yl)pyrazolo[1,5-a]pyrimidine-3-carboxamide]"
11,10 to 1000,"CC(C)N1CCC(C(=O)N2CCN(c3c(F)cncc3NC(=O)c3c(N)nn4cc(F)cnc34)CC2)C1 (centres unmarked) [I-N-206, 2-amino-6-fluoro-N-(5-fluoro-4-(4-(1-isopropylpyrrolidine-3-carbonyl)piperazin-1-yl)pyridin-3-yl)pyrazolo[1,5-a]pyrimidine-3-carboxamide]"
12,10 to 1000,"CCN1CCC(C(=O)N2CCN(c3c(F)cncc3NC(=O)c3c(N)nn4cc(F)cnc34)CC2)C1 (centres unmarked) [I-N-207, 2-amino-N-(4-(4-(1-ethylpyrrolidine-3-carbonyl)piperazin-1-yl)-5-fluoropyridin-3-yl)-6-fluoropyrazolo[1,5-a]pyrimidine-3-carboxamide]"
13,10 to 1000,"COCCS(=O)(=O)C1CCN(c2ccncc2NC(=O)c2c(N)nn3cc(F)cnc23)CC1 [I-N-208, 2-amino-6-fluoro-N-(4-(4-((2-methoxyethyl)sulfonyl)piperidin-1-yl)pyridin-3-yl)pyrazolo[1,5-a]pyrimidine-3-carboxamide]"
